Laboratory results published in patent publication US6197826A, “α-(2-hydroxyphenyl) nitrone compounds, pharmaceutical compositions containing the same and methods for treating inflammation” (Centaur Pharmaceuticals, Inc., priority 1999, dated 2001).

How the values were obtained:
cyclooxygenase 2 (COX-2) = conditions: 300 μM; COX-2 from sheep placenta
Description: (§1) In this experiment, nitrones of formula I were tested to determine if they inhibit the enzymes cyclooxygenase 1 (COX-1) and cyclooxygenase 2 (COX-2). The inhibition of COX-1 was measured by incubating arachidonic acid with COX-1 dervied from ram seminal vesicles. The inhibition of COX-2 was measured by incubation of arachidonic acid with COX-2 derived from sheep placenta. These assays are further described in Evans et al., Biochem. Pharmacol., 36:2035, 1987. In each assay, the formation of prostaglandin E2 (PGE2) was measured by spectrophotometric quantitation of malondialdehyde. The compounds to be tested were added to incubation solutions at a concentration of 300 μM.

cyclooxygenase 1 (COX-1) = conditions: 300 μM; COX-1 from ram seminal vesicles
Description: as §1

Q: Which “inhibition of COX-2” value (cyclooxygenase 2 (COX-2)) does the source give for `COc1ccc2c(c1)c(CC(=O)O)c(C)n2C(=O)c1ccc(Cl)cc1` [indomethacin] here?
A: completely inhibits

Q: What about the “inhibition of COX-1” value (cyclooxygenase 1 (COX-1)) of the same compound?
A: completely inhibits
